According to patent publication US5554631A, “5-pyrrolyl-6-halogeno-2-pyridylmethylsulfinyl benzimidazole derivatives” (Il-Yang Pharm. Co., Ltd., priority 1994, dated 1996):

Legend:
acidity = assay: Inhibition of acidity (total acid output), Shay method; assay type: in vivo, SD male rats; settings: for Volume (inhibition of acidity) / Inhibition rate, acidity: intraduodenal; for Volume (inhibition of acidity) / Inhibition rate, acidity / ED50: 5 h; for Inhibition rate, acidity: vs normal group; for ED50: Rattus norvegicus
Procedure: (§1) The specific test methods are as follows.
(§2) SD male rats (200±20 g) were fasted for 24 hours, except for water, and then anesthesized with ether. The abdomen of rats was incised and then the pylorus was ligated. The test compounds were suspended or dissolved in […] (carboxymethylcellulose) and injected into duodenum. After the abdomen was suctured, the rats were allowed to stand for 5 hours and then sacrificed with ether. The stomach was removed from rats and the gastric juices were collected. The gastric juice was centrifuged with 10,000×g for 10 minutes at 4° C. to remove the precipitate. The amount of gastric juice and acidity were determined using pH 7.0 end point assay with 0.02N NaOH and then the total acid output was calculated.

gastric juice secretion = assay: Inhibition of gastric juice secretion, Shay method; assay type: in vivo, SD male rats; settings: for Gastric juice volume / Inhibition rate, gastric juice secretion: intraduodenal; for Gastric juice volume / Inhibition rate, gastric juice secretion / ED50: 5 h; for Inhibition rate, gastric juice secretion: vs normal group; for ED50: Rattus norvegicus
Procedure: as §1, §2

[1] = tested on: gastric and duodenal ulcers; assay: Anti-ulcer effect / pharmacological efficacy (general statements); settings: in words
in vivo = settings: mouse, in vivo, po
Procedure: (§3) Five weeks aged ICR (male, female) mouse were pre-bred in the breeding cage for one week and then the animals showing a smooth gain in body weight were randomly selected and used in this test. The amount to be administered to the test animals was established on the basis of the maximum dose of 5,000 mg/kg with the common ratio of 1.5.
(§4) The test compounds in a powder were suspended in 0.5% methylcellulose and administered per oral using a lml syringe. The other specific conditions for administration are described in the following.
(§5) In the above test, the control group received only 0.5% methylcellulose.
(§6) (1) Clinical symptoms and death of test animals
(§7) The clinical symptoms and death of test animals caused by the test compounds were recorded immediately after administration of the test compounds and during the overall test period.

ICR (male, female) mouse = assay: in vivo; settings: for Acute toxicity (in words): clinical symptoms, death and autopsy results; for Number of animals died in day after administration: each of days 0-14
Procedure: as §3, §4, §5, §6, §7

H^+ /K^+ -ATPase = target: T1, H^+ /K^+ -ATPase (Oryctolagus cuniculus, UniProt P27112); assay: Inhibition of H+/K+-ATPase enzyme activity in vitro; assay type: biochemical, rabbit; settings: rabbit gastric microsomal H+/K+-ATPase, 5 min pre-incubation at 37° C., 4 mM ATP; read-out: IC50
T1 construct: The gastric mucous membrane was removed from rabbit; from tissue; host or cells: rabbit gastric mucosa, microsomal fraction (77,000 xg)
T1 sequence (P27112 2-1035 limits assumed): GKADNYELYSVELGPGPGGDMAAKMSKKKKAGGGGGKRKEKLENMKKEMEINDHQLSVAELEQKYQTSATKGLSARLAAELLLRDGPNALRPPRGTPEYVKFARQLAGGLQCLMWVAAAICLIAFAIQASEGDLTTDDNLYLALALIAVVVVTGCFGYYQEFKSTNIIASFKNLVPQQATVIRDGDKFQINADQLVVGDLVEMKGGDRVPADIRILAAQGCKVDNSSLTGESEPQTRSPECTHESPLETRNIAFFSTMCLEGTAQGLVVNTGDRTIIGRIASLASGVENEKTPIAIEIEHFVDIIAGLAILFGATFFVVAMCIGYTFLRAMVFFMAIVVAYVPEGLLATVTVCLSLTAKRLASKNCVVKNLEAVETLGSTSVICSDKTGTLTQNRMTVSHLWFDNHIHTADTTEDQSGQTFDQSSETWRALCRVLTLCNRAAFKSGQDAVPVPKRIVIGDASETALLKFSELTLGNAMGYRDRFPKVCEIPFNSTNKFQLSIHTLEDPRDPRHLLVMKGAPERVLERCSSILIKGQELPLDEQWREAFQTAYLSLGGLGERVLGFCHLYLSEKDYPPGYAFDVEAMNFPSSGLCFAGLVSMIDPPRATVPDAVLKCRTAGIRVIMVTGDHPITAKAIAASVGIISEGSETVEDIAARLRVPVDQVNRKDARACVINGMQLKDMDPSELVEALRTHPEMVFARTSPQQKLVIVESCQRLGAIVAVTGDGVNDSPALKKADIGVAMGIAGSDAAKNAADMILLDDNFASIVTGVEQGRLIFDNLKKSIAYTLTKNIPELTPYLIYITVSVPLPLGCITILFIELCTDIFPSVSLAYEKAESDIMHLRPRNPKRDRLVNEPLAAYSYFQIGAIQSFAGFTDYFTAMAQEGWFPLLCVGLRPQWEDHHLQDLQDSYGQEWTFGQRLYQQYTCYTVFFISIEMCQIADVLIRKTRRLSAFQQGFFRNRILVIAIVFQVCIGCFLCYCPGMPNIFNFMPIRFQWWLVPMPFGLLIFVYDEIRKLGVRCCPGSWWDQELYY
T1 sequence (P18597 whole entry partner): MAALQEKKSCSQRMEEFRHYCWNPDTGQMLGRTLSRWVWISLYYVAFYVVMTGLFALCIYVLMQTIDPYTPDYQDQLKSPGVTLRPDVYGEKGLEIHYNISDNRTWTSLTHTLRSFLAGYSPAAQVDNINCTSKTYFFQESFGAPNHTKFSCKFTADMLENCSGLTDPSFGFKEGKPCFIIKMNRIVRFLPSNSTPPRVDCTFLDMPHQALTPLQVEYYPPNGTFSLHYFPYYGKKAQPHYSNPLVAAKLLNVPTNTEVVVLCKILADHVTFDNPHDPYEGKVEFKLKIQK
Procedure: The gastric mucous membrane was removed from rabbit and then centrifuged with 77,000 xg using a ultracentrifuge to separate the microsomal fraction which was used as the source of H^+ /K^+ -ATPase enzyme for this test. 60 μg of H^+ /K^+ -ATPase was pre-incubated with the sample (the compound according to the present invention) for 5 minutes at 37° C. and then 4 mM ATP as the substrate and 4 mM Mg^++, 20 mM K^+ as the cofactor were added thereto. Then, the amount of inorganic phosphorus thus produced was determined using a spectrophotometer at 660 nm and converted into the amount of protein according to Lowry method. […]

[2] = tested on: gastric and duodenal ulcers; settings: background art; cited from earlier work
[3] = tested on: proton pump of H^+, K^+ -ATPase; settings: background art; cited from earlier work

Row | IC50 (H^+ /K^+ -ATPase) [µM] | SMILES | Volume (inhibition of acidity) (acidity; 3 mg/kg, rat) [μEq/hr] | Inhibition rate, acidity (acidity; 3 mg/kg, rat) [%] | Volume (inhibition of acidity) (acidity; 10 mg/kg, rat) [μEq/hr] | Inhibition rate, acidity (acidity; 10 mg/kg, rat) [%] | Volume (inhibition of acidity) (acidity; 30 mg/kg, rat) [μEq/hr] | Inhibition rate, acidity (acidity; 30 mg/kg, rat) [%] | ED50 (acidity) [mg/kg] | Gastric juice volume (gastric juice secretion; 3 mg/kg, rat) [ml/100 g BW] | Inhibition rate, gastric juice secretion (gastric juice secretion; 3 mg/kg, rat) [%] | Gastric juice volume (gastric juice secretion; 10 mg/kg, rat) [ml/100 g BW] | Inhibition rate, gastric juice secretion (gastric juice secretion; 10 mg/kg, rat) [%] | Gastric juice volume (gastric juice secretion; 30 mg/kg, rat) [ml/100 g BW] | Inhibition rate, gastric juice secretion (gastric juice secretion; 30 mg/kg, rat) [%] | ED50 (gastric juice secretion) [mg/kg] | LD50 (in vivo) [mg/kg] | Acute toxicity (in words) (ICR (male, female) mouse; oral, mouse) | other results
1 | < 40 | CCOc1ccnc(C[S+]([O-])c2nc3cc(-n4cccc4)c(F)cc3[nH]2)c1C (stereo not shown) [Compound 5] | – | – | 21.85 ± 2.44 | 66.78 | 11.84 ± 4.00 | 82.00 | – | – | – | 1.63 ± 0.04 | 42.40 | 1.21 ± 0.10 | 57.24 | – | – | – | –
2 | 50 | COc1c(C)cnc(C[S+]([O-])c2nc3cc(-n4c(C)ccc4C)c(F)cc3[nH]2)c1C (stereo not shown) [Compound 15] | – | – | 26.61 ± 5.27 | 51.81 | 12.74 ± 1.80 | 76.93 | – | – | – | 1.81 ± 0.19 | 33.70 | 1.46 ± 0.13 | 46.52 | – | – | – | –
3 | 210 | COc1ccnc(C[S+]([O-])c2nc3cc(-n4c(C)ccc4C)c(F)cc3[nH]2)c1 (stereo not shown) [Compound 20] | – | – | 18.41 ± 2.27 | 74.23 | 11.31 ± 1.91 | 84.17 | – | – | – | 1.41 ± 0.16 | 53.62 | 1.06 ± 0.10 | 65.13 | – | – | – | –

Further lines, the compound ahead of its results:

Row | SMILES | IC50 (H^+ /K^+ -ATPase) [µM] | Volume (inhibition of acidity) (acidity; 3 mg/kg, rat) [μEq/hr] | Inhibition rate, acidity (acidity; 3 mg/kg, rat) [%] | Volume (inhibition of acidity) (acidity; 10 mg/kg, rat) [μEq/hr] | Inhibition rate, acidity (acidity; 10 mg/kg, rat) [%] | Volume (inhibition of acidity) (acidity; 30 mg/kg, rat) [μEq/hr] | Inhibition rate, acidity (acidity; 30 mg/kg, rat) [%] | ED50 (acidity) [mg/kg] | Gastric juice volume (gastric juice secretion; 3 mg/kg, rat) [ml/100 g BW] | Inhibition rate, gastric juice secretion (gastric juice secretion; 3 mg/kg, rat) [%] | Gastric juice volume (gastric juice secretion; 10 mg/kg, rat) [ml/100 g BW] | Inhibition rate, gastric juice secretion (gastric juice secretion; 10 mg/kg, rat) [%] | Gastric juice volume (gastric juice secretion; 30 mg/kg, rat) [ml/100 g BW] | Inhibition rate, gastric juice secretion (gastric juice secretion; 30 mg/kg, rat) [%] | ED50 (gastric juice secretion) [mg/kg] | LD50 (in vivo) [mg/kg] | Acute toxicity (in words) (ICR (male, female) mouse; oral, mouse) | other results
4 | COc1ccnc(C[S+]([O-])c2nc3cc(-n4cccc4)c(F)cc3[nH]2)c1C (stereo not shown) [Compound 2, 2-[[(4-methoxy-3-methyl)-2-pyridinyl]methylsulfinyl]-5-(1H-pyrrol-1-yl)-6-fluoro-1H-benzimidazole] | 4.1 | 34.60 ± 8.12 | 40.62 | 14.28 ± 4.28 | 75.35 | 5.72 ± 0.59 | 90.13 | 4.04 | 2.11 ± 0.36 | 35.28 | 1.52 ± 0.19 | 53.37 | 1.03 ± 0.10 | 68.40 | 8.18 | > 5000 | very low as in Omeprazole | Anti-ulcer effect compared with Omeprazole [1]: anti-ulcer effect is similar to that of Omeprazole; Safety (conclusion) (ICR (male, female) mouse; mouse, in vivo): very safe compound; LD50 (ICR (male, female) mouse; mouse, in vivo, po): > 5,000.0 mg/kg BW; Visual autopsy view (ICR (male, female) mouse; mouse, in vivo, po): No specific abnormal autopsy view was observed
5 | COc1ccnc(C[S+]([O-])c2nc3cc(-n4c(C)ccc4C)c(F)cc3[nH]2)c1C (stereo not shown) [Compound 16, 2-[[(4-methoxy-3-methyl)-2-pyridinyl]methylsulfinyl]-5-(1H-2,5-dimethylpyrrol-1-yl)-6-fluoro-1H-benzimidazole] | 12 | 25.65 ± 6.86 | 64.68 | 10.08 ± 3.71 | 86.12 | 1.75 ± 1.06 | 97.59 | 1.85 | 1.92 ± 0.14 | 44.35 | 1.35 ± 0.15 | 60.87 | 0.98 ± 0.19 | 71.59 | 4.53 | – | – | Acidity lowering effect (in words) (acidity; rat): high acidity lowering effect; Inhibition of gastric juice secretion (in words) (gastric juice secretion; rat): very strong inhibition of gastric juice secretion
6 | COc1ccc2[nH]c([S+]([O-])Cc3ncc(C)c(OC)c3C)nc2c1 (stereo not shown) [Omeprazole, 5-methoxy-2-[[(4-methoxy-3,5-dimethyl-2-pyridinyl)methyl]sulfinyl]-1H-benzimidazole] | ~160 | – | – | 9.91 ± 4.20 | 82.89 | – | – | 3.73 | – | – | 1.49 ± 0.18 | 54.29 | – | – | 8.5 | > 5000 | very low as in Omeprazole | LD50 (ICR (male, female) mouse; female mouse, oral): > 5,000.0 mg/kg BW; Number of animals died in day after administration (ICR (male, female) mouse; female mouse, oral, 987 mg/kg): 0; Number of animals died in day after administration (ICR (male, female) mouse; female mouse, oral, 1481 mg/kg): 0; Number of animals died in day after administration (ICR (male, female) mouse; female mouse, oral, 2222 mg/kg): 0; Number of animals died in day after administration (ICR (male, female) mouse; female mouse, oral, 3333 mg/kg): 0; Number of animals died in day after administration (ICR (male, female) mouse; female mouse, oral, 5000 mg/kg): 0; Clinical symptoms (ICR (male, female) mouse; male and female, oral, maximum administration amount of 5,000 mg per kg): No specific abnormal clinical symptoms were observed; LD50 (ICR (male, female) mouse; male mouse, oral): > 5,000.0 mg/kg BW; Number of animals died in day after administration (ICR (male, female) mouse; male mouse, oral, 987 mg/kg): 0; Number of animals died in day after administration (ICR (male, female) mouse; male mouse, oral, 1481 mg/kg): 0; Number of animals died in day after administration (ICR (male, female) mouse; male mouse, oral, 2222 mg/kg): 0; Number of animals died in day after administration (ICR (male, female) mouse; male mouse, oral, 3333 mg/kg): 0; Number of animals died in day after administration (ICR (male, female) mouse; male mouse, oral, 5000 mg/kg): 0; Visual autopsy view (ICR (male, female) mouse; survived animals, oral): No specific abnormal autopsy view was observed; Anti-ulcer effect over conventional H2-receptor antagonists [2]: superior effect over conventional H2 -receptor antagonists; Duration compared with conventional anti-ulcer agents [2]: prolonged duration in comparison with conventional anti-ulcer agents; Acting mechanism [3]: specific proton pump inhibitor
